The values that follow come from patent US10265329B2, “Altering steroid metabolism for treatment of steroid-dependent disease” (THE CLEVELAND CLINIC FOUNDATION, priority 2015, dated 2019).

The target in data set [1] is T1, 3βHSD (Homo sapiens, UniProt P14060).
T1 construct: endogenous in cells; host or cells: LNCaP, VCaP
T1 sequence (P14060 2-373 limits assumed): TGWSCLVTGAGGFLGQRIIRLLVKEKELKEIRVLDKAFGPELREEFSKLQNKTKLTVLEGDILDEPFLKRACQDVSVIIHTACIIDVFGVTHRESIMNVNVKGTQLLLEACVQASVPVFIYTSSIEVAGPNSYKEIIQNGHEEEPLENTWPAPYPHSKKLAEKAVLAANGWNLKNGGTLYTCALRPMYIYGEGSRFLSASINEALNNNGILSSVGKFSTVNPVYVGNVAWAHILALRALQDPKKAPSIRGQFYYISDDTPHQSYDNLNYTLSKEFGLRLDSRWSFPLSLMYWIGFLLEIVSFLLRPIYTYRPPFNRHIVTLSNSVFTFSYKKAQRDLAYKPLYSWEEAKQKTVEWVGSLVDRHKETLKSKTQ
Put plainly: Xenograft metabolism: [3H]-DHEA to AD in minced xenograft tumors. The settings on record: LNCaP and VCaP xenografts, 0.1-10 μM. On the procedure: Cell Line Metabolism: Cells were seeded and incubated in 12-well plates with 0.2 million cells/well for ˜24 h and then incubated with a mixture of radioactive ([^3H]-labeled) and non-radioactive androgens (final concentration, 100 nM; ˜1,000,000 cpm/well; PerkinElmer, Waltham, Mass.) at 37° C. Aliquots of medium were collected at the indicated times. Collected medium was treated with 1,000 units of β-glucuronidase (Helix pomatia; Sigma-Aldrich) at 65° C. for 2 h, extracted with 860 μL ethyl acetate:isooctane (1:1), and concentrated under nitrogen gas. Xenograft Metabolism: 10^7 LNCaP or VCaP cells were injected subcutaneously with Matrigel into surgically orchiectomized NSG mice that were implanted with 5 mg 90-day sustained-release DHEA pellets (Innovative Research of American, Sarasota, Fla.). […] Each xenograft was analyzed in triplicate in at least three independent experiments. […]
Dried samples were reconstituted in 50% methanol and injected into the HPLC. […] Alternatively, dried samples were applied to plastic-backed silica gel plates and separated by thin-layer chromatography (TLC) using a mobile phase of 3:1 chloroform:ethyl acetate, followed by exposure of the plates to a phosphorimager screen and quantitated with a Storm model 860 phosphorimager (Applied Biosystems, Foster City, Calif.). […]

Data set [2] can be described thus: Abi conversion to D4A in mouse serum after Abi acetate. The settings on record: mice administered Abi acetate i.p. It counts as in vivo. On the procedure: FIG. 1A-FIG. 1E provides chemical structures and graphs showing the structural consequences of the conversion from Abi to D4A that occurs in both mice, and patients, and requires 3βHSD. A, Schematic of Abi conversion to D4A. * double bond and C3-position for substrates and products of 3βHSD. B, Abi is converted to D4A in vivo. Abi acetate was injected i.p. in 5 mice. Blood was collected 2 h and 4 h after injection. Serum concentrations of Abi and D4A were quantified by mass spectrometry and are represented as the percentage of the sum total of Abi+D4A. C, D4A is detectable in all patients (n=12) with CRPC treated with Abi acetate. D, Representative mass spectrometry tracing of D4A and Abi from the serum of a patient treated with Abi acetate. E, 3βHSD1 is capable of converting Abi to D4A. LAPC4 cells overexpressing 3βHSD1 were treated with 10 μM Abi (or [^3H]-DHEA) for 24 h. Abi, D4A (as a percentage of Abi+D4A), [^3H]-DHEA and [^3H]-DHEA metabolites (labeled metabolites), were separated by HPLC. Results are shown as mean (n=3)±s.d. with biological replicates. The experiment was repeated independently at least 3 times.

Data set [3] has as its system C4-2 xenografts. Put plainly: C4-2 xenograft progression in orchiectomized mice with DHEA pellet. Type of data set: in vivo. The settings on record: 0.5 mmol/kg/d i.p.; compared to Abi acetate and enzalutamide. The method, then:
Male NSG mice, 6 to 8 weeks of age were obtained from the Cleveland Clinic Biological Resources Unit facility. All mouse studies were conducted under a protocol approved by the Cleveland Clinic Institutional Animal Care and Use Committee. Sample size was determined based on our prior studies of steroidogenesis inhibition in xenograft models of CRPC. Chang et al., Proc Natl Acad Sci USA., 108:13728-13733 (2011). Criteria for progression were determined based on similar criteria that are utilized for clinical progression. Mice were surgically orchiectomized and implanted with a 5 mg 90-day sustained-release DHEA pellet (Innovative Research of America) to mimic CRPC in the context of human adrenal physiology. Two days later, 10^7 VCaP or C4-2 cells were injected subcutaneously with matrigel. […] Control groups were administered 0.1 mL 5% benzyl alcohol and 95% safflower oil solution via intraperitoneal injection every day. Mice in enzalutamide group were fed with enzalutamide in chow every day (10 mg/Kg/day). Tran et al., Science. 324:787-790 (2009). Treatment was not blinded to the investigator. Tumor volume was measured daily, and time to increase in tumor volume by 20% was determined. […] The significance of the difference between treatment groups was assessed by Kaplan-Meier survival analysis using a log-rank test in SigmaStat 3.5.

Data set [4] relates to AR chromatin occupancy on PSA, TMPRSS2 and FKBP5 regulatory elements. Put plainly: AR chromatin occupancy ChIP assay in LNCaP cells. Type of data set: cell-based, human. The settings on record: 3 h. On the procedure: LNCaP cells were serum-starved for at least 48 h and treated with indicated drugs and DHT for 3 h. A ChIP assay was performed with an anti-AR antibody (Santa Cruz, sc-816) as described previously. Li et al., Proc Natl Acad Sci USA. 108:3116-3123 (2011). All of the precipitated DNA samples were quantified by qPCR and normalized to input DNA. All ChIP experiments were performed at least three times. Primers used for ChIP experiments are from experiments previously described. Evaul et al., Endocrinology, 151:3514-3520 (2010).

Consider `C[C@]12CCC(=O)C=C1CC[C@@H]1[C@@H]2CC[C@]2(C)C(c3cccnc3)=CC[C@@H]12` [Compound D4A, 17-(3-Pyridyl)androsta-4,16-dien-3-one], for which the “potency relative to Abi in blocking conversion from DHEA by 3βHSD to AD” value in data set [1] turned out to be 10 fold. Moreover, the “detection in sera of mice” value in data set [2] was “detectable”. The progression-free survival entry in data set [3] is listed as “increased progression-free survival”. Also, the “inhibition of DHT-induced AR chromatin occupancy” value in data set [4] was “superior to Abi and somewhat lower than enzalutamide”.
